Among the data in PubChem BioAssay (NCI) are TGI and GI50 values, retold here.

Several values for one entry are separate records, joined by “and”; a condition that tells them apart may be missing. Identical values can stand only once.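 Interpolation was linear, between the two tested concentrations surrounding the appropriate level; five concentrations were tested over 48 hours in 96-well plates. GI50 = concentration required for 50% inhibition of growth. At the TGI there is no net growth.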 A value given as a limit tells only on which side of the number the result lay.

Holding throughout (assay): NCI tumour cell line growth inhibition, 48 h
Experiment [1] concerns DLD-1 colon.
The subject of experiment [2] is DMS 114 small cell lung.
For experiment [3], the system named is DMS 273 small cell lung.
Experiment [4] concerns LXFL 529 NSCLC.
Experiment [5] has as its system M19-MEL melanoma.
Experiment [6] relates to RXF-631 renal.
Experiment [7] has as its system SNB-78 CNS.
The test system of experiment [8] is XF 498 CNS.
Experiment [9] has as its system MDA-N.

Consider `COc1ccc2oc3c(OC)c(OC)c(OC)cc3c(=O)c2c1`, for which the TGI in [1], in experiment [2], in experiment [3], in experiment [4], in experiment [5] and in experiment [6] was greater than 100 µM each time. For the same compound, the TGI in experiment [7] and in experiment [8] was greater than 100 µM throughout.

`CN(C)CC1CC/C(=C\c2ccc3c(c2)OCO3)C1=O` (configuration not stated): the TGI in experiment [1] was found to be 40.3 µM; in experiment [2], 37.3 µM; in experiment [3], 30.9 µM; in [4], 25.4 µM; in experiment [5] it was 35.5 µM; in experiment [9] it was 15.6 µM. In addition, the figures for the TGI in experiment [6], in experiment [7] and in experiment [8] were 31.2 µM, 51 µM and 32.7 µM, respectively.

`N#CC(C(=O)CCCC(=O)Nc1ccc(Cl)cc1Cl)c1ccccc1` (configuration not stated): the TGI in [1], in experiment [2], in experiment [3], in experiment [5], in experiment [6] and in experiment [7] was greater than 100 µM each time.

On to `Cc1ccc(N=C[N-]c2ccc(C)cc2)cc1.Cc1ccc(N=C[N-]c2ccc(C)cc2)cc1.O=C([O-])C(F)(F)F.O=C([O-])C(F)(F)F.[OH3+].[OH3+].[Rh+2].[Rh+2]`, for which the GI50 in experiment [1] is 56.7 µM; in [2], 38.4 µM; in [3] it was 80.2 µM; in experiment [4] it was 28.4 µM; in [5] it was 33.3 µM; in [6], greater than 100 µM. Moreover, the GI50 in experiment [7] was 53.3 µM; in [8] it was 22.5 µM. For the same compound, the TGI was greater than 100 µM in experiment [1]; greater than 100 µM in experiment [2]; greater than 100 µM in experiment [3]; 74.2 µM in [4]; 89.4 µM in [5]; greater than 100 µM in experiment [6]. Moreover, the TGI in experiment [7] was greater than 100 µM; in experiment [8], 59.4 µM.

For the compound `COc1cc2c(c(OC)c1OC)-c1ccc(SC)c(=O)cc1[C@@H](NCc1ccc([N+](=O)[O-])cc1)CC2`, the TGI was greater than 100 µM in experiment [1]; 0.00735 µM in [2]; 1.06 µM in [3]; greater than 100 µM in [4]; greater than 100 µM in [5]; greater than 100 µM in experiment [7].

Consider `CCCCCC(O)C(O)CCC[C@H](O)[C@H]1CC[C@H]([C@H]2CC[C@H]([C@H](O)CCCCCCCCCCCCC3=C[C@H](C)OC3=O)O2)O1` (some centres not stated), for which, in experiment [9], the GI50 is 4.19 µM and the TGI was 23.5 µM.

Take `CCOC(=O)C(Cc1ccc(N(CCCl)CCCl)cc1)NC(=O)C(Cc1ccccc1)NC=O` (configuration not stated): the TGI in experiment [9] worked out at 0.338 µM.

Regarding `C1CN(c2nnc(N3CCC3)nn2)C1`, the TGI in [1] is greater than 100 µM; in [2] it was 43.6 µM; in [3], greater than 60.2 µM; in experiment [4] it was 44 µM; in experiment [5] it was 29.4 µM; in [9], 31 µM. Also, the TGI was greater than 100 µM in experiment [7] and 46.1 µM in [8].

For the compound `CC(C)c1cccc(C(C)C)c1N1C(=O)C(=O)C(c2nc3ccccc3o2)C(=O)C1=O`, the TGI is greater than 100 µM in [1]; 84.5 µM in experiment [2]; greater than 100 µM in experiment [3]; greater than 100 µM in experiment [4]; greater than 100 µM in [5]; greater than 100 µM in [6]. Further, the TGI was greater than 100 µM in experiment [7] and 89.9 µM in [8].

Regarding `CC1=C(C(=O)Nc2ccccc2)C(c2ccccc2Cl)C(C(=O)Nc2ccccc2)=C(C)N1`, the TGI was greater than 100 µM in experiment [1]; 41.9 µM in [3]; 37.1 µM in experiment [4]; 36 µM in [5]; greater than 100 µM in experiment [6].

Regarding `O=C(O)CCNS(=O)(=O)c1ccc2ccccc2c1`, the TGI in experiment [1], in experiment [3], in [4], in experiment [5] and in [8] was greater than 100 µM in each case.

Regarding `Cc1c(C(=O)O)n(C)c(=O)n(C)c1=O`, the TGI in [1], in experiment [3], in [4], in [5] and in experiment [8] was greater than 100 µM throughout.

`CC1=C(SC#N)S(=O)(=O)N(c2ccccc2)C(C)=C1SC#N`: the TGI was greater than 100 µM in [1]; 38.3 µM in [2]; greater than 100 µM in [3]; greater than 100 µM in experiment [4]; greater than 100 µM in experiment [5]; greater than 100 µM in [7]. The TGI in [8] was found to be 72.3 µM.

As for `Cc1cc(-c2c(F)cc3c4nn([C@H]5CC[C@@H](N(C)C)CC5)c(=O)c-4cn(C4CC4)c3c2F)cc(C)n1`, the GI50 in experiment [1] was 0.156 µM; in experiment [2], 0.111 µM; in experiment [3] it was 0.03 µM; in experiment [4] it was 0.227 µM; in experiment [5], 0.247 µM; in experiment [7] it was 0.669 µM. Also, in experiment [8], the GI50 was 0.394 µM. In addition, the TGI in experiment [1] was 2.85 µM; in experiment [2], 0.124 µM and 0.36 µM; in experiment [3] it was 0.0372 µM and 0.172 µM; in experiment [4], 0.267 µM and 1.31 µM; in experiment [5], 0.507 µM and 1.59 µM; in [9], 6.75 µM. The TGI is 0.256 µM in experiment [6]; 11.5 µM and 6.93 µM in experiment [7]; 0.757 µM and 2.29 µM in experiment [8].

As to `COC1=CC(C2c3cc4c(cc3[C@@H](Nc3ccc(F)cc3)C3COC(=O)[C@H]23)OCO4)=CC(=O)C1=O` (some centres not stated), the TGI in experiment [1] is greater than 100 µM; in experiment [3], 16.3 µM; in [4] it was 16.3 µM; in experiment [5] it was 55.7 µM; in experiment [7], greater than 96.4 µM; in [8], 27.9 µM.

In the case of `C1CCCCc2nc3c(nc2CCC1)c1nc2c(nc1c1nc4c(nc31)CCCCCCCC4)CCCCCCCC2`, the TGI in experiment [1], in experiment [4], in experiment [6] and in experiment [7] was greater than 100 µM each time.
